Where two headings read alike, the source gives them in different places.
Experiments:
CYP2C9 = CYP2C9 (Homo sapiens, UniProt P11712); assay: CYP2C9-catalyzed diclofenac 4′-hydroxylase inhibition in pooled human liver microsomes; details: for IC50: CYP2C9 diclofenac 4′-hydroxylase, 10 µM diclofenac
Experimental: (§3) The degrees of inhibition (the IC50 values) of aschantin toward CYP1A2, CYP2A6, CYP2C8, CYP2C9, CYP2C19, CYP2D6, and CYP3A4 were evaluated using pooled human liver microsomes employing a cocktail of CYP substrates and liquid chromatography-tandem mass spectrometry (LC-MS/MS). […] After 3 min pre-incubation at 37 °C, the reactions were initiated by addition of NADPH and incubation proceeded for 15 min at 37 °C in a shaking water bath. The reaction was stopped by placing the tubes on ice and adding 100 µL amounts of ice-cold methanol containing internal standards (^13C2,^15N-acetaminophen for acetaminophen and N-desethylamodiaquine; d9-1′-hydroxybufuralol for 4′-hydroxydiclofenac; and 7-hydroxycoumarin, 4′-hydroxy-mephenytoin, 1′-hydroxybufuralol, and 1′-hydroxymidazolam). Then the incubation mixtures were centrifuged at 13,000× g for 4 min at 4 °C. All assays were performed in triplicate and the average values were used in calculations.
(§4) To this end, we employed a tandem mass spectrometer (TSQ Quantum Access, Thermo Scientific, San Jose, CA, USA) coupled to a Nanospace SI-2 LC system (Shiseido, Tokyo, Japan). The column and autosampler temperatures were 50 °C and 6 °C, respectively. The mass spectrometer was equipped with an electrospray ionization (ESI) source and was operated in positive ion mode. The ESI source settings for metabolite ionization were as follows: capillary voltage, 4200 V; vaporizer temperature, 350 °C; capillary temperature 330 °C; sheath gas pressure, 35 psi; and auxiliary gas pressure, 15 psi. […] Analytical data were processed using Xcalibur® software (Thermo Scientific).
(§5) The apparent kinetic inhibitory potentials (the Ki values) were estimated from the fitted curves using Enzyme Kinetics version 1.1 (Systat Software Inc.).

CYP1A2 = target: T1, CYP1A2 (Homo sapiens, UniProt P05177); assay: CYP1A2-catalyzed phenacetin O-de-ethylase inhibition in pooled human liver microsomes
T1 sequence (P05177 1-516): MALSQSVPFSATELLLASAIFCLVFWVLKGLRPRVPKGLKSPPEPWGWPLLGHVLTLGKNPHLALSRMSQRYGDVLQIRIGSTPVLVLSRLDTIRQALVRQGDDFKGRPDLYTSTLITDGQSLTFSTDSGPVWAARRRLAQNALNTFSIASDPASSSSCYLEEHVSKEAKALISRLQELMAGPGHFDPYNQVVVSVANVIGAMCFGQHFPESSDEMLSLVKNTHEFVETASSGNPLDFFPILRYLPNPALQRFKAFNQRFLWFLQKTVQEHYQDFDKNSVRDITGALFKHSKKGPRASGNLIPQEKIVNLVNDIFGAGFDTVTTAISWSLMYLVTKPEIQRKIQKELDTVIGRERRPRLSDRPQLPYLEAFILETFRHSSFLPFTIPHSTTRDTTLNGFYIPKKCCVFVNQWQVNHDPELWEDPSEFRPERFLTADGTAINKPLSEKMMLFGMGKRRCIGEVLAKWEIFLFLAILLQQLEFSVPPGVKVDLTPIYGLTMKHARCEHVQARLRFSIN
Experimental: as §3, §4, §5

CYP3A4 [1] = target: T2, CYP3A4 (Homo sapiens, UniProt P08684); assay: Mechanism-based (time- and concentration-dependent) inactivation of CYP3A4 in human liver microsomes; type: in vitro ADME; details: CYP3A4-mediated midazolam 1′-hydroxylation
Experimental: The microsomes (1 mg/mL) were pre-incubated with various concentrations of aschantin in 50 mM potassium phosphate buffer (pH 7.4) in the presence of NADPH. Aliquots (10 µL) of the incubated mixtures were withdrawn at 5, 10, 15, and 20 min after incubation commenced and added to other tubes containing the CYP substrates (2 µM amodiaquine for CYP2C8, 10 µM diclofenac for CYP2C9, 100 µM [S]-mephenytoin for CYP2C19, or 2 µM midazolam for CYP3A4), 1 mM NADPH, 50 mM potassium phosphate buffer (pH 7.4), and 10 mM MgCl2, in 90 µL reaction mixtures. […] Aliquots (5 µL) of the diluted supernatants were analyzed by LC-MS/MS, as described above.

CYP3A4 [2] = target: T2, CYP3A4; assay: CYP3A4-catalyzed midazolam 1′-hydroxylase inhibition in pooled human liver microsomes; details: for IC50: CYP3A4 midazolam 1′-hydroxylase, 2.5 µM midazolam
Experimental: as §3, §4

CYP2D6 = CYP2D6 (Homo sapiens, UniProt P10635); assay: CYP2D6-catalyzed bufuralol 1′-hydroxylase inhibition in pooled human liver microsomes
Experimental: as §3, §4

UGT1A6 = target: T3, UGT1A6 (Homo sapiens, UniProt P19224); assay: UGT1A6-catalyzed N-acetylserotonin glucuronidation inhibition in pooled human liver microsomes; type: in vitro ADME; details: 1 µM N-acetylserotonin
T3 construct: using pooled human liver microsomes incubated with the cocktail of UGT substrates; tissue Corning Life Sciences 452161; host or cells: pooled human liver microsomes
T3 sequence (P19224 27-532): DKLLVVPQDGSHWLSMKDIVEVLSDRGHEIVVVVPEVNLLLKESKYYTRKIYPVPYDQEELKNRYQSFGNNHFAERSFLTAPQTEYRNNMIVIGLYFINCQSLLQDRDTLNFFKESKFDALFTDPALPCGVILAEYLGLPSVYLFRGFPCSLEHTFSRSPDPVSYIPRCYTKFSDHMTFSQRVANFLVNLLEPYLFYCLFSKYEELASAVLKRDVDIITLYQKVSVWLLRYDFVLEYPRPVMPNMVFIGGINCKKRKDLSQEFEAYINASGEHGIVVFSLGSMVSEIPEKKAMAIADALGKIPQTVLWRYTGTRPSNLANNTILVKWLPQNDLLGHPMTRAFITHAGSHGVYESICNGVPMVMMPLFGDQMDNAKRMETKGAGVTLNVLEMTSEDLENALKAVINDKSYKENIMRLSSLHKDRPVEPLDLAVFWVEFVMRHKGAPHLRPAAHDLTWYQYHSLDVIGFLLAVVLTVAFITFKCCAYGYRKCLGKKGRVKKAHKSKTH
Experimental: (§1) The extents of aschantin on UGT1A1, UGT1A3, UGT1A4, UGT1A6, UGT1A9, and UGT2B7 were evaluated by LC-MS/MS, using pooled human liver microsomes incubated with the cocktail of UGT substrates. The method was modified from that of Joo et al..
(§2) The metabolites formed from the six UGT cocktail substrates were simultaneously measured using the LC-MS/MS method. […] The mass spectrometer was equipped with an ESI source and was operated in both positive and negative ion modes. […] Each metabolite was quantified via SRM in the negative ion (chenodeoxycholic acid 24-acyl-β-glucuronide, 567.2 > 391.0; mycophenolic acid glucuronide, 495.2 > 318.9; propofol glucuronide, 353.3 > 177.1) and positive ion (SN-38 glucuronide, 569.0 > 393.0; trifluoperazine glucuronide, 584.2 > 408.1; N-acetylserotonin-β-D-glucuronide, 395.2 > 219.0; naloxone 3-β-D-glucuronide, 504.0 > 310.0; meloxicam, 352.0 > 115.1) modes.

UGT1A9 = target: T4, UGT1A9 (Homo sapiens, UniProt O60656); assay: UGT1A9-catalyzed mycophenolic acid glucuronidation inhibition in pooled human liver microsomes; type: in vitro ADME; details: 0.2 µM mycophenolic acid
T4 construct: using pooled human liver microsomes incubated with the cocktail of UGT substrates; tissue Corning Life Sciences 452161; host or cells: pooled human liver microsomes
T4 sequence (O60656 26-530): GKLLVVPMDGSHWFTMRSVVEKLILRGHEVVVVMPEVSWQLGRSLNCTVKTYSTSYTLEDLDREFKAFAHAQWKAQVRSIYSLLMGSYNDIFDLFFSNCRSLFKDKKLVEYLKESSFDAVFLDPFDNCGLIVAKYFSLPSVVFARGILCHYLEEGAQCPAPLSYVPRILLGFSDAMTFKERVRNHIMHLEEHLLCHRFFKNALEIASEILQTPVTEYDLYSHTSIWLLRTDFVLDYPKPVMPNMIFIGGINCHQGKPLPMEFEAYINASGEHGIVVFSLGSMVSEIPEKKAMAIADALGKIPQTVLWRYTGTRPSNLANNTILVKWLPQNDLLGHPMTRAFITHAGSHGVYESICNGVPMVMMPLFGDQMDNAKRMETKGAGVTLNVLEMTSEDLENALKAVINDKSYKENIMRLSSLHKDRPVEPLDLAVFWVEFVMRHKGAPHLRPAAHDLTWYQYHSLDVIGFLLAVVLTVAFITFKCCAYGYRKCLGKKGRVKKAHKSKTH
Experimental: as §1, §2

[3] = IC50 No Pre-incubation, pooled human liver microsomes, no pre-incubation
[4] = IC50 With Pre-incubation, 30 min pre-incubation with microsomes and NADPH
[5] = aschantin at 100 µM, human liver microsomes

Chain of CYP2D6 (P10635 whole entry): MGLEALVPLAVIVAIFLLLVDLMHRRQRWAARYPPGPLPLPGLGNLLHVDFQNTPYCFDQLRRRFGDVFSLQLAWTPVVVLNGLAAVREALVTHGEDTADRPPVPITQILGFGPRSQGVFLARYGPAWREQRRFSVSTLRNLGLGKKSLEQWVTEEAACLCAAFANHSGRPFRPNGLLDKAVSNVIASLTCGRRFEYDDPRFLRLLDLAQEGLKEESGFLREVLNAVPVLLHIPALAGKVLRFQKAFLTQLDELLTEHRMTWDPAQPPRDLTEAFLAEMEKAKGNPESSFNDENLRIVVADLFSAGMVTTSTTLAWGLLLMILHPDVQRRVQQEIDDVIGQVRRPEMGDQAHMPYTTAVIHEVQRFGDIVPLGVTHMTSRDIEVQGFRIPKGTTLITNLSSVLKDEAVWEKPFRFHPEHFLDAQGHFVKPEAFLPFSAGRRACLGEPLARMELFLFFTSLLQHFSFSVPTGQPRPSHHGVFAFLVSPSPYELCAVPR
T2 sequence (P08684 2-503): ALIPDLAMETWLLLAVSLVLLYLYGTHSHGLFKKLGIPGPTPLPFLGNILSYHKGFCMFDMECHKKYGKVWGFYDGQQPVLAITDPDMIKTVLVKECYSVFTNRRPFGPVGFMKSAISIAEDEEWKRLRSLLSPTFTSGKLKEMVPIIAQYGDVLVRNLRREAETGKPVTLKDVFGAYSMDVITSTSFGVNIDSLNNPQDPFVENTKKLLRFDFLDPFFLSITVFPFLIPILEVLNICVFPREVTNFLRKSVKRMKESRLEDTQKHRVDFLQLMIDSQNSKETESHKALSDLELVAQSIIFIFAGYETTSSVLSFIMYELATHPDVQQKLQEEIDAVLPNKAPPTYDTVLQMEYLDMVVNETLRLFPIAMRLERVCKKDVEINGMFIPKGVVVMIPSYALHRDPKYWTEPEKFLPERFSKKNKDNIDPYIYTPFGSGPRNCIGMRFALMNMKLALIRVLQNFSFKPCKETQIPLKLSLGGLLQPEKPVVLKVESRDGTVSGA
Chain of CYP2C9 (P11712 whole entry): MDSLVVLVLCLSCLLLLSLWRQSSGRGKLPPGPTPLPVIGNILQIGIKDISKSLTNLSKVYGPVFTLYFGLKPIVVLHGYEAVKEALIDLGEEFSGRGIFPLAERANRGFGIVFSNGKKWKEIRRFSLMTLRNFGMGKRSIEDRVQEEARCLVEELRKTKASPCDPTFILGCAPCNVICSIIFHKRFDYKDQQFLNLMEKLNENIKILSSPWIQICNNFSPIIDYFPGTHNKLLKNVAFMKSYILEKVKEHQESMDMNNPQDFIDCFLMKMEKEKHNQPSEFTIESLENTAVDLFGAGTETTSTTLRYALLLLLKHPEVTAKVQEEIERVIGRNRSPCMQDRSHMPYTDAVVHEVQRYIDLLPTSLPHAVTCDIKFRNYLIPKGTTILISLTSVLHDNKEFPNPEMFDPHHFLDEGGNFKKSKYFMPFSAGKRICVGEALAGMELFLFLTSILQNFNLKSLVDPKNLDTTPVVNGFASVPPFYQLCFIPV

IC50 (CYP2C9; [3]): 40.5 µM
IC50 (CYP2C9; [4]): 14.1 µM
IC50 shift at 0.5 h (CYP2C9; human, pooled human liver microsomes, pH 7.4, probe diclofenac (10 µM), 4′-hydroxylation): > 2.5
IC50 (CYP1A2): > 100 µM
inhibition of CYP1A2-mediated phenacetin O-de-ethylation (CYP1A2; [5]): negligibly inhibited
IC50 (CYP1A2; read-out: IC50 With Pre-incubation, CYP1A2 phenacetin O-de-ethylase, 50 µM phenacetin, 30 min pre-incubation with microsomes and NADPH): > 100 µM
Ki (CYP3A4 [1]; read-out: Ki (apparent)): 12.6 µM
kinact (CYP3A4 [1]; pH 7.4, probe midazolam (2 µM)): 0.00103 s⁻¹
IC50 (CYP3A4 [2]; [3]): 57.5 µM
IC50 (CYP3A4 [2]; [4]): 14.4 µM
IC50 shift at 0.5 h (CYP3A4 [2]; human, pooled human liver microsomes, pH 7.4, probe midazolam (2.5 µM), 1′-hydroxylation): > 2.5
IC50 (CYP2D6): > 100 µM
inhibition of CYP2D6-mediated bufuralol 1′-hydroxylation (CYP2D6; [5]): negligibly inhibited
IC50 (CYP2D6; read-out: IC50 With Pre-incubation, CYP2D6 bufuralol 1′-hydroxylase, 5.0 µM bufuralol, 30 min pre-incubation with microsomes and NADPH): > 100 µM
IC50 (UGT1A6): 144 µM
IC50 (UGT1A9): 71 µM
SMILES: COc1cc([C@H]2OC[C@H]3[C@@H]2CO[C@@H]3c2ccc3c(c2)OCO3)cc(OC)c1OC [Aschantin]
